Assay results published in the NIST ThermoML archive (doi:10.1021/je800248w).
Numbers after ± are expanded uncertainties.

What was measured:
[1] = molar heat capacity at constant pressure; xn = mol fraction of the nth substance listed; conditions: 101.3 kPa, Liquid, Small sample (50 mg) DSC
[2] = excess molar enthalpy (molar enthalpy of mixing); xn = mol fraction of the nth substance listed; conditions: 101 kPa, Liquid, Calvet calorimetry

CCn1cc[n+](C)c1.O=C([O-])C(F)(F)F [1-ethyl-3-methylimidazolium trifluoroacetate] + O
Conditions	excess molar enthalpy [kcal/mol]	molar heat capacity at constant pressure [J/K/mol]
[1], 283.15 K, x2 = 0	–	308 ± 25
[1], 283.15 K, x2 = 0.2025	–	264 ± 21
[1], 283.15 K, x2 = 0.3973	–	226 ± 18
[1], 283.15 K, x2 = 0.5817	–	182 ± 15
[1], 283.15 K, x2 = 0.7562	–	139 ± 11
[1], 283.15 K, x2 = 0.842	–	117 ± 10
[1], 283.15 K, x2 = 0.9256	–	99 ± 8
[1], 283.15 K, x2 = 0.9668	–	87 ± 7
[1], 283.15 K, x2 = 0.9912	–	78 ± 6
[1], 293.15 K, x2 = 0	–	313 ± 25
[1], 293.15 K, x2 = 0.2025	–	269 ± 22
[1], 293.15 K, x2 = 0.3973	–	231 ± 19
[1], 293.15 K, x2 = 0.5817	–	186 ± 15
[1], 293.15 K, x2 = 0.7562	–	143 ± 12
[1], 293.15 K, x2 = 0.842	–	120 ± 10
[1], 293.15 K, x2 = 0.9256	–	100 ± 8
[1], 293.15 K, x2 = 0.9668	–	90 ± 7
[1], 293.15 K, x2 = 0.9912	–	80 ± 7
[1], 303.15 K, x2 = 0	–	320 ± 26
[1], 303.15 K, x2 = 0.2025	–	274 ± 22
[1], 303.15 K, x2 = 0.3973	–	238 ± 19
[1], 303.15 K, x2 = 0.5817	–	191 ± 16
[1], 303.15 K, x2 = 0.7562	–	147 ± 12
[1], 303.15 K, x2 = 0.842	–	122 ± 10
[1], 303.15 K, x2 = 0.9256	–	102 ± 8
[1], 303.15 K, x2 = 0.9668	–	91 ± 7
[1], 303.15 K, x2 = 0.9912	–	80 ± 7
[1], 313.15 K, x2 = 0	–	324 ± 26
[1], 313.15 K, x2 = 0.2025	–	276 ± 22
[1], 313.15 K, x2 = 0.3973	–	241 ± 20
[1], 313.15 K, x2 = 0.5817	–	194 ± 16
[1], 313.15 K, x2 = 0.7562	–	150 ± 12
[1], 313.15 K, x2 = 0.842	–	124 ± 10
[1], 313.15 K, x2 = 0.9256	–	103 ± 8
[1], 313.15 K, x2 = 0.9668	–	92 ± 7
[1], 313.15 K, x2 = 0.9912	–	81 ± 7
[1], 323.15 K, x2 = 0	–	328 ± 27
[1], 323.15 K, x2 = 0.2025	–	280 ± 23
[1], 323.15 K, x2 = 0.3973	–	245 ± 20
[1], 323.15 K, x2 = 0.5817	–	198 ± 16
[1], 323.15 K, x2 = 0.7562	–	153 ± 12
[1], 323.15 K, x2 = 0.842	–	126 ± 10
[1], 323.15 K, x2 = 0.9256	–	104 ± 8
[1], 323.15 K, x2 = 0.9668	–	92 ± 7
[1], 323.15 K, x2 = 0.9912	–	81 ± 7
[1], 333.15 K, x2 = 0	–	332 ± 27
[1], 333.15 K, x2 = 0.2025	–	285 ± 23
[1], 333.15 K, x2 = 0.3973	–	251 ± 20
[1], 333.15 K, x2 = 0.5817	–	201 ± 16
[1], 333.15 K, x2 = 0.7562	–	155 ± 13
[1], 333.15 K, x2 = 0.842	–	127 ± 10
[1], 333.15 K, x2 = 0.9256	–	104 ± 8
[1], 333.15 K, x2 = 0.9668	–	92 ± 7
[1], 333.15 K, x2 = 0.9912	–	81 ± 7
[1], 343.15 K, x2 = 0	–	337 ± 27
[1], 343.15 K, x2 = 0.2025	–	290 ± 24
[1], 343.15 K, x2 = 0.3973	–	254 ± 21
[1], 343.15 K, x2 = 0.5817	–	204 ± 17
[1], 343.15 K, x2 = 0.7562	–	157 ± 13
[1], 343.15 K, x2 = 0.842	–	129 ± 10
[1], 343.15 K, x2 = 0.9256	–	105 ± 9
[1], 343.15 K, x2 = 0.9668	–	92 ± 7
[1], 343.15 K, x2 = 0.9912	–	81 ± 7
[2], 313.04 K, x2 = 0.2499	-0.315 ± 0.0129	–
[2], 313.04 K, x2 = 0.25	-0.315 ± 0.0129	–
[2], 313.04 K, x2 = 0.498	-0.511 ± 0.0208	–
[2], 313.04 K, x2 = 0.4981	-0.511 ± 0.0208	–
[2], 313.04 K, x2 = 0.7483	-0.49 ± 0.0198	–
[2], 313.04 K, x2 = 0.7484	-0.49 ± 0.0198	–
[2], 323.04 K, x2 = 0.2474	-0.312 ± 0.0127	–
[2], 323.04 K, x2 = 0.2485	-0.313 ± 0.0127	–
[2], 323.04 K, x2 = 0.4967	-0.501 ± 0.0203	–
[2], 323.04 K, x2 = 0.4993	-0.502 ± 0.0206	–
[2], 323.04 K, x2 = 0.7472	-0.469 ± 0.0191	–
[2], 323.04 K, x2 = 0.7482	-0.468 ± 0.0191	–
[2], 333.06 K, x2 = 0.2464	-0.311 ± 0.0127	–
[2], 333.06 K, x2 = 0.2477	-0.312 ± 0.0127	–
[2], 333.06 K, x2 = 0.4934	-0.492 ± 0.0201	–
[2], 333.06 K, x2 = 0.4966	-0.494 ± 0.0201	–
[2], 333.06 K, x2 = 0.7466	-0.449 ± 0.0182	–
[2], 333.06 K, x2 = 0.7476	-0.448 ± 0.0182	–
[2], 348.06 K, x2 = 0.2486	-0.312 ± 0.0127	–
[2], 348.06 K, x2 = 0.2489	-0.311 ± 0.0127	–
[2], 348.06 K, x2 = 0.4979	-0.478 ± 0.0194	–
[2], 348.06 K, x2 = 0.4994	-0.478 ± 0.0194	–
[2], 348.06 K, x2 = 0.748	-0.412 ± 0.0167	–
[2], 348.06 K, x2 = 0.7484	-0.411 ± 0.0167	–
